Reference: patent US11583511B2, “Maresins for use in the treatment of CNS injuries” (UNIVERSITAT AUTONOMA DE BARCELONA, priority 2017, dated 2023)

Assays:
[1] = test system: neutrophils, macrophages and microglia in the contused spinal cord; assay: Flow cytometry of immune cell counts in contused spinal cord after MaR1 treatment; type: in vivo, C57BI/6 mice; conditions: vs saline
Procedure: (§1) All surgical procedures were approved by the Universitat Autònoma de Barcelona Animal Care Committee and followed the guidelines of the European Commission on Animal Care, and the methods for each procedure were carried out in accordance with the approved guidelines. 142 Adult (8 to 10 weeks old) female C57BI/6 mice (Charles River) were anesthetized with ketamine:xylazine (90:10 mg/kg). After performing a laminectomy at the 11th thoracic vertebrae, the exposed spinal cord was contused using the Infinite Horizon Impactor device (Precision Scientific Instrumentation, Lexington, Ky.). Injuries were made using a force of 60 kdynes and tissue displacement ranging between 500-700 μm as reported earlier (Coll-Miro et al., 2016).
(§2) One hour after spinal cord injury, 1 μg of MaR1 (7S,14S-dihydroxy-4Z,8E,10E,12Z,16Z, 19Z-docosahexaenoic acid; Cayman Chemical) was injected intravenously in 100 μl of sterile saline, and then repeated daily thereafter until day 7. Control mice were injected with an equal volume of sterile saline following the same injection protocol. Precautions with regards to the handling of lipid mediators to prevent inactivity due to oxygenation were implemented. The MaR1 dosage was chosen accordingly to be above levels i) of approved MaR1 bioactivity in experimental disease models (Serhan et al., 2015) and ii) above SPM dosages sufficient to exert bioactivity in the CNS with intact and closed blood brain barrier (Marcheselli et al., 2003; Svensson et al., 2007).
(§3) Immune cells from the laminectomized and injured spinal cord were analyzed by flow cytometry at 1, 3, 7, 14, 21 and 28 days post-injury as described previously to study the dynamics of immune cell in spinal cord injury as described previously (Santos-Nogueira et al., 2015; Coll-Miro et al., 2016; Francos-Quijorna et al., 2016). Similarly, spinal cord from mice treated with MaR1 or saline were also harvested at day 1, 3 and 7 post-lesion. Briefly, spinal cords were cut in little pieces and passed through a cell strainer of 70 μm (BD falcon) and the cell suspension was centrifuged twice at 300 g for 10 minutes at 4° C. After cell counts, samples were divided, and cells alone and isotype-matched control samples were generated to control for nonspecific binding of antibodies and for auto-fluorescence. The following antibodies from eBioscience were used at 1:250 concentration: CD45-PerCP, CD11b-PE-Cy7, Ly6C-FITC, Ly6G-PE, Gr1-FITC, F4/80-APC or PE, CD3-FITC, CD4-APC, CD8-APC, CD19-PE, CD206-FITC, CD16/32-PE. After 30 min of incubation with combinations of antibodies at 4° C., cells were then fixed in 1% paraformaldehyde. For intracellular staining, cells were permeabilized with Permeabilization Wash Buffer (Biolegend), incubated with unconjugated rabbit antibodies against iNOS (1:200 Abcam), and goat antibodies against Arg1 (1:200; Santa Cruz) for 30 minutes, followed by staining with Alexa488 or Alexa647 conjugated donkey secondary antibodies against rabbit or goat (1:500 Molecular Probes) for 30 min. Finally, samples were washed and fixed in 1% paraformaldehyde. To perform the analysis, cells were first gated for CD45 to ensure that only infiltrating leukocytes and resident microglia are selected. Then, the following combination of markers were used to identify: microglia (CD45^low, CD11b^+, F4/80^+); macrophages (CD45^high, CD11b^+, F4/80^+); neutrophils (CD45^high, CD11b^+, F4/80^−, Gr1^high); CD4 T-Cells (CD45^+, CD11b^−, CD3^+, CD4^+); CD8 T Cells (CD45^+, CD11b, CD3^+, CD8^+); B cell (CD45^+, CD11b^−, CD3^−, CD19^+). To study the phenotype of microglia and macrophages, these cells were further differentiated based on Ly6C, CD16/32, iNOS, CD206 and Arg1 expression (Coll-Miro et al., 2016; Francos-Quijorna et al., 2016). Analysis of inflammatory cell kinetics at the lesion site was conducted applying objective and quantifiable measures of resolution dynamics as described previously (Pruss et al., 2011). […]

[2] = test system: cytokines and chemokines in the contused spinal cord; assay: Cytokine protein expression in contused spinal cord (Luminex); type: in vivo, C57BI/6 mice
Procedure: as §1, §2
Mice treated with saline or MaR1 were perfused with sterile saline and a 5 mm length of spinal cord centered on the lesion was collected at 12 and 24 h after contusion injury and snap-frozen. Spinal cords were homogenized and protein concentration was determined using the DC Protein Assay (Bio-Rad). Samples were concentrated to 4 μg/μl using MicroCon centrifugation filters (Millipore) to ensure equal amounts of protein. Low concentrations of cytokines in the sample result in binding to the filters whereas high concentrations of protein sustain less losses. The protein levels of 32 cytokines and chemokines were then analyzed using the Milliplex MAP Mouse Cytokine/Chemokine magnetic bead panel (Millipore) on a Luminex (Millipore) as per manufacturers' protocol (Francos-Quijorna et al., 2016).

[3] = test system: STAT, MAPK, NF-κB and PI3K/Akt signaling; assay: Western blotting of inflammatory signaling pathways in contused spinal cord; type: in vivo, C57BI/6 mice; conditions: vs saline
Procedure: as §1, §2
Samples used for Luminex assay, were also used to for western blotting. Protein samples (30 μg) were separated by electrophoresis on a 10-15% polyacrylamide gel and transferred onto PVDF membranes (Millipore). The membranes were incubated overnight at 4° C. with rabbit antibodies against phospho NF-kB p65 (1:1000; Cell Signaling), against the phosphorylated form of STAT1 (1:500; Cell Signaling), STAT3 (1:500; Cell Signaling), STAT5 (1:500; Cell Signaling) and STAT6 (1:500; Cell Signaling), JNK (1:500; Santa Cruz), ERK1/2 (1:1000; Cell Signaling), p38 (1:1000; Cell Signaling) and AKT (1:1000; Cell Signaling). Bands were detected using Chemiluminescence (Immobilon Western Chemiluminescence HRP reagent, Millipore) and data quantified by densitometry using Workflow v3 software in a Chemidoc apparatus (Millipore). ß-actin (1:10.000; Sigma Aldrich) was used to ensure equal loading of samples.

[4] = test system: macrophages and microglia (Ly6C, iNOS, Arg1); assay: Flow cytometry of macrophage and microglia phenotype after SCI; type: in vivo, C57BI/6 mice
Procedure: as §1, §2, §3

[5] = test system: macrophages (CD45high, CD11b+, F4/80+); assay: Efferocytosis: neutrophil marker Ly6G inside macrophages after SCI; type: in vivo, C57BI/6 mice; conditions: 7 days post-lesion; vs saline
Procedure: as §1, with “Injuries were made using a force of 60 kdynes and tissue displacement ranging between 500-700 μm as reported earlier (Coll-Miro et al., 2016).” left out
Immune cells from the laminectomized and injured spinal cord were analyzed by flow cytometry at 1, 3, 7, 14, 21 and 28 days post-injury as described previously to study the dynamics of immune cell in spinal cord injury as described previously (Santos-Nogueira et al., 2015; Coll-Miro et al., 2016; Francos-Quijorna et al., 2016). […] After cell counts, samples were divided, and cells alone and isotype-matched control samples were generated to control for nonspecific binding of antibodies and for auto-fluorescence. […] Analysis of inflammatory cell kinetics at the lesion site was conducted applying objective and quantifiable measures of resolution dynamics as described previously (Pruss et al., 2011). […]

[6] = test system: spinal cord contusion injury; assay: Functional assessment of locomotor recovery after SCI (BMS, DigiGait, treadmill); type: in vivo, C57BI/6 mice
Procedure: as §1, §2
Locomotor recovery was evaluated at 1, 3, 5, 7, 10, 14, 21 and 28 dpi in an open-field test using the nine-point Basso Mouse Scale (BMS) (Basso et al., 2006), which was specifically developed for locomotor testing after contusion injuries in mice. The BMS analysis of hindlimb movements and coordination was performed by two independent assessors blinded for the treatment groups (MaR1 vs saline) and the consensus score taken. […] Moreover, the highest locomotion speed that each mouse was to able locomote for at least 5 seconds was also recorded on the DigiGait treadmill belt. […]

[7] = test system: spinal cord contusion injury; assay: Histology of secondary tissue damage after SCI; type: in vivo, C57BI/6 mice; conditions: 28 days post-injury, vs saline
Procedure: as §1, §2
At 28 days post-injury, mice were perfused with 4% paraformaldehyde in 0.1M-phosphate buffer (PB). A 5 mm length of spinal cord containing the lesion site was removed, cryoprotected with 30% sucrose in 0.1M PB at 4° C., and 10 series of 10 μm thick section were picked up on glass slides. Adjacent sections on the same slide were therefore 100 μm apart. For quantification of myelin area content in the spinal cord analyses, sections were stained with Luxol Fast Blue (Sigma). […]
The epicenter of the injection or contusion injury impact was determined for each mouse spinal cord by localizing the tissue section with the greatest damage using LFB stained section. Myelin content after SCI was calculated by delineating the are of LFB stained tissue. Neuronal survival was assessed by counting the number of NeuN^+ cells in the ventral horns at the injury epicenter and at rostral and caudal areas. Axonal sparing was calculated by counting the number of axons in the dorsal column at the injury epicenter, the region of most pronounced damage. […] All quantifications were performed blinded to the experimental groups with the help of the ImageJ image analysis software.

human macrophages = conditions: 1 nM concentration; cited from earlier work
[8] = contused spinal cord, 24 h after SCI, MaR1 1 μg i.v., mean ± SEM
[9] = spinal cord tissue 24 hours after SCI

CC/C=C\C/C=C\C[C@H](O)\C=C/C=C/C=C/[C@@H](O)C/C=C\CCC(=O)O [MaR1, 7S,14S-dihydroxy-4Z,8E,10E,12Z,16Z, 19Z-docosahexaenoic acid]
clearance of neutrophils from the contused spinal cord (Ri and T50) ([1]; 1 μg MaR1 i.v. daily for 7 days): accelerated
entrance of blood-borne macrophages into the contused spinal cord ([1]; day 1): not different
neutrophil counts in contused spinal cord ([1]; day 1 post-injury, 1 μg MaR1 i.v. daily from 1 hour after SCI): unaltered
macrophage counts in the contused spinal cord ([1]; day 3 post-injury, not significant): tended to be reduced
reduction of neutrophil counts in the injured spinal cord ([1]; day 7, 1 μg MaR1 i.v. daily): ~50%
macrophage accumulation in the lesioned spinal cord ([1]; day 7 post-lesion): significantly reduced
microglial numbers in the contused spinal cord ([1]; first week following contusion injury): did not attenuate
protein levels of the anti inflammatory cytokine IL-10 ([2]; after SCI, vs saline): did not reduce
CCL3 protein level [2, 8]: 13.3 ± 1.18
CCL4 protein level [2, 8]: 17.7 ± 1.46
CSF3 protein level [2, 8]: 741 ± 118
CXCL1 protein level [2, 8]: 87.5 ± 21.3
CXCL2 protein level [2, 8]: 41.4 ± 7.50
IL-6 protein level [2, 8]: 291 ± 56.7
IL-4 protein levels ([2]; injured spinal cord, both groups): undetected
ERK1/2 activation ([3]; 24 hours post-injury): attenuated
JKN activation ([3]; 24 hours post-injury): remained unaltered
STAT1 activation ([3]; 24 hours post-injury): attenuated
STAT3 activation ([3]; 24 hours post-injury): attenuated
STAT5 activation ([3]; 24 hours post-injury): attenuated
STAT6 activation ([3]; 24 hours post-injury): remained unaltered
p38 activation ([3]; 24 hours post-injury): attenuated
pAkt level [3, 9]: not affected
pP65 level [3, 9]: not affected
percent of Ly6Chigh microglia ([4]; 7 days after SCI): 10.6%±1.1
ratio LyC6low/LyC6high macrophages ([4]; 7 days after SCI, p=0.0036 vs saline): 3.73±0.26
reduction of pro-inflammatory macrophages (Ly6Chigh) ([4]; 7 days after SCI, vs saline): ~50%
increase of Arg-1 expression in macrophages ([4]; 7 days post injury, did not reach statistical significance): ~2 fold
iNOS expression in microglia ([4]; 7 days post injury, not statistically significant): tended to reduce
iNOS expression in macrophages ([4]; 7 days post injury, vs saline): significantly reduced
increase of neutrophil marker Ly6G inside macrophages (neutrophil phagocytosis) [5]: ~2 fold
BMS score ([6]; 28 dpi, nine-point Basso Mouse Scale, 1 μg MaR1 i.v. daily until day 7): 4.58±0.22
DigiGait gait symmetry and stance/width stepping variability ([6]; day 28 post-injury, vs saline): improved
speed of locomotion on the treadmill ([6]; day 28 post-injury, vs saline): significantly faster
neuronal survival in the ventral horn ([7]; caudal regions to the injury epicenter): improved
myelin content (LFB) ([7]; injury epicenter and 200 μm rostral and caudal): increased
axonal sparing (NF+) in the dorsal columns ([7]; injury epicenter): enhanced
demyelination (NF/MBP+) in the dorsal columns ([7]; injury epicenter): reduced
efferocytosis by human macrophages compared with RvD1 (human macrophages): greater efferocytosis
